Laboratory results published in publication PMC1192819, “Molecular cloning and characterization of a nuclear androgen receptor activated by 11-ketotestosterone” (Reproductive biology and endocrinology : RB&E, 2005).

What was measured:
[1] = test system: AR in three-spined stickleback kidney cytosolic extracts; conditions: 4°C
Method: The reaction was terminated at different time-points ranging between 1 min and 24 h. The specific binding at each time-point was determined as described above.

[2] = biological target: recombinant stickleback ARβ2 (Gasterosteus aculeatus, UniProt Q801Z2); conditions: recombinant ARβ2, reticulocyte extract
recombinant stickleback ARβ2, sequence (Q801Z2 1-735): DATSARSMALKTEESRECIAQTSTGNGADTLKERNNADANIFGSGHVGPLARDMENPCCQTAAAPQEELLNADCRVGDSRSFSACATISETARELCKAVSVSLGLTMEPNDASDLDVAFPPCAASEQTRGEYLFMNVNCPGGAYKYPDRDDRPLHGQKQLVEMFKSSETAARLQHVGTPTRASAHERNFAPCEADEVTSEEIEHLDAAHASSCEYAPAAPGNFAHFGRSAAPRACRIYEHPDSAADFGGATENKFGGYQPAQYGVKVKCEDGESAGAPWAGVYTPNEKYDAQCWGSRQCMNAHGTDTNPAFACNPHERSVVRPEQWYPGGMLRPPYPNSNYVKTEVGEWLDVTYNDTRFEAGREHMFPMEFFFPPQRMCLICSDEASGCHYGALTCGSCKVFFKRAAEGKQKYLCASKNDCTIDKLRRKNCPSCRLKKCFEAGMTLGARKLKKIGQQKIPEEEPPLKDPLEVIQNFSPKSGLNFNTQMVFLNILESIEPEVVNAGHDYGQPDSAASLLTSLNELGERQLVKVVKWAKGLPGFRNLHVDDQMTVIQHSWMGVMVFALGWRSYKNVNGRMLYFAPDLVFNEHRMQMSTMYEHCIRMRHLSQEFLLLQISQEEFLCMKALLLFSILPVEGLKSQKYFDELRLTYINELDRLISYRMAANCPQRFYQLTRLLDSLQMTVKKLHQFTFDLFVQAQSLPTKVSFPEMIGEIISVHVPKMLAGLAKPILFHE
Method: The excised AR pBK CMV clones were digested with XbaI and EcoRI and the inserts were gel purified prior to ligation into the pCMV-TNT vector (Promega) between XbaI and EcoRI. […] AR was expressed by introducing the pCMV-TNT into the TNT coupled reticulocyte lysate system (Promega) according to the manufacturer's instructions. The size of the expressed products was determined by addition of S^35-methionin to the reticulocyte lysate system. The obtained protein suspension was analyzed on a denaturing 8% SDS PAGE and the sizes were determined using prestained SDS-PAGE broad range protein molecular weight standard (Bio-Rad) and a control luciferase protein of 62 kDa included in the reticulocyte lysate system (Promega). […]
Aliquots (250 μl) of the nuclear or cytosolic preparations were added to each tube, the tubes were vortexed and incubated over night at 4°C. […] The supernatants were decanted into 7 ml scintillation vials, 5 ml of standard scintillation cocktail was added and the radioactivity in each sample was measured in a liquid scintillation counter (Beckman LS 6000SC, Beckman Instruments, Fullerton, CA). […] 250 μl of the supernatant was transferred into 5 ml scintillation vials and 4 ml of standard scintillation cocktail was added before the radioactivity in each sample was measured in a liquid scintillation counter (Wallac 1409, Wallac Oy, Turku, Finland).

[3] = biological target: AR in stickleback kidney cytosolic fraction; experiment: Saturation and Scatchard analysis, kidney cytosolic fraction; assay type: binding, three-spined stickleback (Gasterosteus aculeatus); conditions: overnight 4°C
Method: Aliquots (250 μl) of the nuclear or cytosolic preparations were added to each tube, the tubes were vortexed and incubated over night at 4°C. To stop the binding reaction, 250 μl DCC was added to each tube. The tubes were vortexed and the suspensions were incubated for 5 min at 4°C, before spinning at 3,000 × g at 4°C for 5 min. The supernatants were decanted into 7 ml scintillation vials, 5 ml of standard scintillation cocktail was added and the radioactivity in each sample was measured in a liquid scintillation counter (Beckman LS 6000SC, Beckman Instruments, Fullerton, CA). The procedure used for the expressed recombinant ARβ2 was modified as follows. […] The expressed proteins were diluted 1:100 and aliquots (100 μl) were added to each reaction tube. The tubes were vortexed and incubated over night at 4°C. To stop the binding reaction, 200 μl DCC was added to each tube. The tubes were vortexed and the suspension were incubated for 5 min at 4°C, before spinning at 3,000 × g at 4°C for 5 min. 250 μl of the supernatant was transferred into 5 ml scintillation vials and 4 ml of standard scintillation cocktail was added before the radioactivity in each sample was measured in a liquid scintillation counter (Wallac 1409, Wallac Oy, Turku, Finland).

C[C@]12CCC(=O)C[C@@H]1CC[C@@H]1[C@@H]2CC[C@]2(C)[C@@H](O)CC[C@@H]12 [[^3H]-DHT]
association t1/2 ([1]; 4 nM tracer): 3.3 min | time to reach binding equilibrium ([1]; 4 nM tracer): 20 min | dissociation t1/2 ([1]; 100-fold excess unlabelled DHT): 80 min | time to complete dissociation ([1]; 100-fold excess unlabelled DHT): ≤ 8 h | Bmax [2]: 0.324 ± 0.04 pmol/mg protein | Kd [3]: 18.7 ± 3.21 nM
